Values quoted from earlier work, collected in US20100168247A1, “SOLID COMPOSITES OF A CALCIUM RECEPTOR-ACTIVE COMPOUND” (TEVA PHARMACEUTICAL INDUSTRIES LTD., priority 2006, published 2010).

- solubility (pH 1): about 0.1 mg/ml
- solubility in water (pH 7): less than 1 μg/ml
SMILES: C[C@@H](NCCCc1cccc(C(F)(F)F)c1)c1cccc2ccccc12.Cl [cinacalcet, (R)—N-[1-(1-naphthyl)ethyl]-3-[3-(trifluoromethyl)phenyl]propan-1-amine hydrochloride]
